This passage reports MIC results from US4374147A, “13-Oxo-monic acid esters useful as antibacterial and antimycoplasmal agents” (Beecham Group Limited, priority 1980, dated 1983).

Holding throughout (assay type): cell-based
One assay deals with E.coli NCTC 10418. The experiment in a line: MIC by serial dilution in nutrient agar (human bacteria, Table 1). The conditions noted are these: Escherichia coli, NCTC10418, 5% "chocolated" horse blood.
The next assay concerns E.coli ESS. Described as above. To be noted: Escherichia coli, 5% "chocolated" horse blood.
A further assay relates to P. mirabilis 889. The assay is described as above. The conditions noted are these: Proteus mirabilis, 5% "chocolated" horse blood.
The next assay relates to K. aerogenes A. The description is as above. To be noted: Klebsiella aerogenes, 5% "chocolated" horse blood.
For the next assay, the system named is Ps. aeruginosa 10662. The assay is described as above. The conditions noted are these: Pseudomonas aeruginosa, 5% "chocolated" horse blood.
In assay [1] the test system is Pasteurella multocida 1633. Described as above. To be noted: Pasteurella multocida, 1633.
The test system of assay [2] is Haemophilus influenzae Q1. Described as above. The conditions noted are these: Haemophilus influenzae Q1; nutrient agar, 5% "chocolated" horse blood; read-out: MIC.
For assay [3], the system named is Haemophilus influenzae Wy21. The assay is described as above. To be noted: 5% "chocolated" horse blood.
Assay [4] deals with Neisseria flavesceus 8263. The experiment in a line: MIC by serial dilution in nutrient agar (human bacteria, Table 1, footnote a). An excerpt:
| ^ a Neisseria flavesceus 8263

The test system of another assay is Bacillus subtilis 6633. The experiment in a line: MIC by serial dilution in nutrient agar (human bacteria, Table 1). The conditions noted are these: 5% "chocolated" horse blood.
The subject of assay [5] is Corynebacterium xerosis 9755. Described as above. The conditions noted are these: 5% "chocolated" horse blood.
The test system of another assay is Sarcina lutea 8340. The description is as above. The conditions noted are these: Micrococcus luteus, 5% "chocolated" horse blood.
A further assay deals with Staph.aureus Oxford. The assay is described as above. The conditions noted are these: Staphylococcus aureus; Staph.aureus Oxford; nutrient agar, 5% "chocolated" horse blood; read-out: MIC.
The test system of a further assay is Staph.aureus Russell. Described as above. To be noted: Staphylococcus aureus; Staph.aureus Russell; nutrient agar, 5% "chocolated" horse blood; read-out: MIC.
The next assay has as its system Strep.faecalis I. The assay is described as above. The conditions noted are these: Enterococcus faecalis, 5% "chocolated" horse blood.
A further assay relates to Strep.pyogenes A 64/848. The assay is described as above. To be noted: Streptococcus pyogenes, A64/848, 5% "chocolated" horse blood.
Another assay has as its system Strep.pyogenes B 2788. The assay is described as above. To be noted: Streptococcus pyogenes, B2788, 5% "chocolated" horse blood.
A further assay deals with Strep.pyogenes C 2761. Described as above. To be noted: Streptococcus pyogenes, C2761, 5% "chocolated" horse blood.
For another assay, the system named is M.dispar NCTC 10125. The experiment in a line: Anti-mycoplasmal MIC by serial dilution in Friis broth (Table 3). The conditions noted are these: read-out: in vitro MIC. An excerpt:
(§1) *Determined by serial dilution in Friis broth (Friis N.F. 1975. Nord. Vet
(§2) Med. 27, 337) in microtiter plates using a modification of the metabolite
(§3) inhibition test (TaylorRobinson D. 1967. Postgrad. Med. J., 43, suppl.

The subject of a further assay is M.pneumoniae 427a. The description is as above. The conditions noted are these: Mycoplasmoides pneumoniae, read-out: in vitro MIC.
From the text: as §1, §2, §3

Assay [6] concerns M.suipneumoniae J2206/183b. The description is as above. To be noted: Mesomycoplasma hyopneumoniae, read-out: in vitro MIC.
From the text: as §1, §2, §3

In brackets after ≈: the same amount, converted by molar mass.

In the case of `COC(=O)CCCCCCCCOC(=O)/C=C(\C)CC1OCC(CC2OC2C(C)C(C)=O)C(O)C1O` (stereo not drawn) [Example 1, Methyl 13-Oxopseudomonate A], the MIC was > 200 µg/mL against E.coli NCTC 10418; 2 µg/mL (≈ 3.9 µM) with E.coli ESS; > 200 µg/mL against P. mirabilis 889; > 200 µg/mL in the assay on K. aerogenes A; > 200 µg/mL with Ps. aeruginosa 10662; 1 µg/mL (≈ 1.95 µM) in assay [1]. Further, the MIC in [2] is 0.5 µg/mL (≈ 0.975 µM); in assay [3], 0.5 µg/mL (≈ 0.975 µM); in assay [4], 1 µg/mL (≈ 1.95 µM); with Bacillus subtilis 6633 it was 0.5 µg/mL (≈ 0.975 µM); in assay [5] it was > 200 µg/mL; against Sarcina lutea 8340, > 200 µg/mL. The MIC in the assay with Staph.aureus Oxford is 0.5 µg/mL (≈ 0.975 µM); in the assay on Staph.aureus Russell it was 2 µg/mL (≈ 3.9 µM); against Strep.faecalis I, > 200 µg/mL; with Strep.pyogenes A 64/848, 0.5 µg/mL (≈ 0.975 µM); in the assay on Strep.pyogenes B 2788, 10 µg/mL (≈ 19.5 µM); with Strep.pyogenes C 2761 it was 2 µg/mL (≈ 3.9 µM). For the same molecule, the MIC with M.dispar NCTC 10125 came to 0.5 µg/mL (≈ 0.975 µM); in the assay with M.pneumoniae 427a it was 250 µg/mL (≈ 488 µM); in assay [6], 62.5 µg/mL (≈ 122 µM).
